Laboratory results from patent US20120029187A1, “HALOALKYLSULFONANILIDE DERIVATIVE” (Nissan Chemical Industries, Ltd., priority 2009, published 2012).

Assays:
Type in all cases: in vivo
velvetleaf [1] = assay: Test Example 3: herbicidal effects in soil treatment; conditions: dose 6.3 g/a
Summary of the method: (§1)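 Seeds were sown in sterilized diluvial soil and covered with about 1.5 cm of soil. Compounds, formulated as emulsifiable concentrates and diluted with water, were sprayed evenly over the soil surface at set doses in g/a. Herbicidal effect was scored on a rating scale three weeks later.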

redroot pigweed [2] = assay: as above; conditions: dose 6.3 g/a
Summary of the method: as §1

barnyardgrass [3] = assay: as above; conditions: dose 6.3 g/a
Summary of the method: as §1

common ragweed [4] = assay: as above; conditions: dose 6.3 g/a
Summary of the method: as §1

posumbu knotweed [5] = assay: as above; conditions: dose 6.3 g/a
Summary of the method: as §1

giant foxtail [6] = assay: as above; conditions: dose 6.3 g/a
Summary of the method: as §1

common lambsquater [7] = assay: as above; conditions: dose 6.3 g/a
Summary of the method: as §1

wild oat [8] = assay: as above; conditions: dose 6.3 g/a
Summary of the method: as §1

water foxtail [9] = assay: as above; conditions: dose 6.3 g/a
Summary of the method: as §1

Italian ryegrass [10] = assay: as above; conditions: dose 6.3 g/a
Summary of the method: as §1

large crabgrass [11] = assay: as above; conditions: dose 6.3 g/a
Summary of the method: as §1

common chickweed [12] = assay: as above; conditions: dose 6.3 g/a
Summary of the method: as §1

velvetleaf [13] = assay: Test Example 4: herbicidal effect in foliage treatment; conditions: dose 6.3 g/a, three weeks after application
Summary of the method: (§2)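 Post-emergence foliar spray of water-diluted emulsifiable concentrate at predetermined doses (g per are), applied to plants 14 days after sowing in sterile diluvial soil (greenhouse, 25 to 30° C). Visual scale rating of effect taken 3 weeks later.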

redroot pigweed [14] = assay: as above; conditions: dose 6.3 g/a, three weeks after application
Summary of the method: as §2

barnyardgrass [15] = assay: as above; conditions: dose 6.3 g/a, three weeks after application
Summary of the method: as §2

common ragweed [16] = assay: as above; conditions: dose 6.3 g/a, three weeks after application
Summary of the method: as §2

posumbu knotweed [17] = assay: as above; conditions: dose 6.3 g/a, three weeks after application
Summary of the method: as §2

giant foxtail [18] = assay: as above; conditions: dose 6.3 g/a, three weeks after application
Summary of the method: as §2

common lambsquater [19] = assay: as above; conditions: dose 6.3 g/a, three weeks after application
Summary of the method: as §2

wild oat [20] = assay: as above; conditions: dose 6.3 g/a, three weeks after application
Summary of the method: as §2

water foxtail [21] = assay: as above; conditions: dose 6.3 g/a, three weeks after application
Summary of the method: as §2

beadstraw = assay: as above; conditions: dose 6.3 g/a, three weeks after application
Summary of the method: as §2

Italian ryegrass [22] = assay: as above; conditions: dose 6.3 g/a, three weeks after application
Summary of the method: as §2

large crabgrass [23] = assay: as above; conditions: dose 6.3 g/a, three weeks after application
Summary of the method: as §2

common chickweed [24] = assay: as above; conditions: dose 6.3 g/a, three weeks after application
Summary of the method: as §2

transplanted rice = assay: Test Example 1: preemergence treatment under submerged conditions, effect on crop; conditions: dose 2.52 g/a
Summary of the method: (§3)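 Score 0–5 by mortality (5: ≥90%; 0: <5%), read 3 weeks post-application. Paddy-type cups: alluvial soil under 4 cm water, weeds seeded plus transplanted 2.5-leaf rice; diluted EC dosed onto water surface same day as sowing, g/a basis; greenhouse 25 to 30° C.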

barnyardgrass [25] = assay: Test Example 2: herbicidal effects during the vegetation period under submerged conditions; conditions: treatment during the vegetation period under submerged conditions; dose 2.52 g/a
Summary of the method: (§4)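 Barnyardgrass, bulrush and ducksalad were co-sown in alluvial soil flooded to 4 cm and grown in a greenhouse at 25 to 30° C. At the 1- or 2-leaf stage, water-diluted emulsifiable concentrates went onto the water surface at set doses (g/a). Herbicidal effect was scored three weeks later on a graded scale.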

bulrush [26] = assay: as above; conditions: treatment during the vegetation period under submerged conditions; dose 2.52 g/a
Summary of the method: as §4

ducksalad [27] = assay: as above; conditions: treatment during the vegetation period under submerged conditions; dose 2.52 g/a
Summary of the method: as §4

barnyardgrass [28] = assay: Test Example 1: herbicidal effects in preemergence treatment under submerged conditions; conditions: dose 2.52 g/a
Summary of the method: as §3

bulrush [29] = assay: as above; conditions: dose 2.52 g/a
Summary of the method: as §3

ducksalad [30] = assay: as above; conditions: dose 2.52 g/a
Summary of the method: as §3

CCOC(=O)N(c1ccccc1CN1COCCC1=O)S(=O)(=O)C(F)(F)F [II-2]
I: velvetleaf, herbicidal effect (evaluation scale 0-5) (velvetleaf [1]): 5 (mortality of 90% or above (nearly complete death)) | K: redroot pigweed, herbicidal effect (evaluation scale 0-5) (redroot pigweed [2]): 0 (mortality of less than 5% (almost ineffective)) | A: barnyardgrass, herbicidal effect (evaluation scale 0-5) (barnyardgrass [3]): 5 (mortality of 90% or above (nearly complete death)) | J: common ragweed, herbicidal effect (evaluation scale 0-5) (common ragweed [4]): 5 (mortality of 90% or above (nearly complete death)) | M: posumbu knotweed, herbicidal effect (evaluation scale 0-5) (posumbu knotweed [5]): 1 (mortality of at least 5% and less than 20%) | E: giant foxtail, herbicidal effect (evaluation scale 0-5) (giant foxtail [6]): 5 (mortality of 90% or above (nearly complete death)) | L: common lambsquater, herbicidal effect (evaluation scale 0-5) (common lambsquater [7]): 5 (mortality of 90% or above (nearly complete death)) | F: wild oat, herbicidal effect (evaluation scale 0-5) (wild oat [8]): 0 (mortality of less than 5% (almost ineffective)) | G: water foxtail, herbicidal effect (evaluation scale 0-5) (water foxtail [9]): 5 (mortality of 90% or above (nearly complete death)) | H: Italian ryegrass, herbicidal effect (evaluation scale 0-5) (Italian ryegrass [10]): 4 (mortality of at least 70% and less than 90%) | D: large crabgrass, herbicidal effect (evaluation scale 0-5) (large crabgrass [11]): 5 (mortality of 90% or above (nearly complete death)) | N: common chickweed, herbicidal effect (evaluation scale 0-5) (common chickweed [12]): 5 (mortality of 90% or above (nearly complete death)) | I: velvetleaf, herbicidal effect (velvetleaf [13]): 5 (mortality of 90% or above (nearly complete death)) | K: redroot pigweed, herbicidal effect (redroot pigweed [14]): 0 (mortality of less than 5% (almost ineffective)) | A: barnyardgrass, herbicidal effect (barnyardgrass [15]): 5 (mortality of 90% or above (nearly complete death)) | J: common ragweed, herbicidal effect (common ragweed [16]): 4 (mortality of at least 70% and less than 90%) | M: posumbu knotweed, herbicidal effect (posumbu knotweed [17]): 3 (mortality of at least 40% and less than 70%) | E: giant foxtail, herbicidal effect (giant foxtail [18]): 5 (mortality of 90% or above (nearly complete death)) | L: common lambsquater, herbicidal effect (common lambsquater [19]): 4 (mortality of at least 70% and less than 90%) | F: wild oat, herbicidal effect (wild oat [20]): 0 (mortality of less than 5% (almost ineffective)) | G: water foxtail, herbicidal effect (water foxtail [21]): 5 (mortality of 90% or above (nearly complete death)) | O: beadstraw, herbicidal effect (beadstraw): 4 (mortality of at least 70% and less than 90%) | H: Italian ryegrass, herbicidal effect (Italian ryegrass [22]): 4 (mortality of at least 70% and less than 90%) | D: large crabgrass, herbicidal effect (large crabgrass [23]): 5 (mortality of 90% or above (nearly complete death)) | N: common chickweed, herbicidal effect (common chickweed [24]): 3 (mortality of at least 40% and less than 70%) | a: transplanted rice, effect on crop (evaluation scale 0-5) (transplanted rice): 1 (mortality of at least 5% and less than 20%) | A: barnyardgrass, herbicidal effect (evaluation scale 0-5) (barnyardgrass [25]): 5 (mortality of 90% or above (nearly complete death)) | B: bulrush, herbicidal effect (evaluation scale 0-5) (bulrush [26]): 5 (mortality of 90% or above (nearly complete death)) | C: ducksalad, herbicidal effect (evaluation scale 0-5) (ducksalad [27]): 4 (mortality of at least 70% and less than 90%) | A: barnyardgrass, herbicidal effect (evaluation scale 0-5) (barnyardgrass [28]): 5 (mortality of 90% or above (nearly complete death)) | B: bulrush, herbicidal effect (evaluation scale 0-5) (bulrush [29]): 5 (mortality of 90% or above (nearly complete death)) | C: ducksalad, herbicidal effect (evaluation scale 0-5) (ducksalad [30]): 5 (mortality of 90% or above (nearly complete death))
